The record followed here is ChEMBL document CHEMBL4425082, “Antimalarial Chemotherapy: Natural Product Inspired Development of Preclinical and Clinical Candidates with Diverse Mechanisms of Action” (J Med Chem, 2016).

The IC50 is the concentration needed to halve the response being measured. A word on the ED50: it is the dose that gives a 50% effect, or the effect in half of the subjects. As usually defined, the bioavailability is the share of a dose that reaches the circulation, judged against a reference dose that is usually intravenous. What is called half-life is how long it takes for the measured level to halve.

The nature of data set [1]: Inhibition of Plasmodium falciparum cytochrome bc1 expressed in HEK293 cells by spectrophotometric analysis. It is filed as cell-based.
The nature of data set [2]: Inhibition of Plasmodium falciparum NDH2 expressed in HEK293 cells by spectrophotometric analysis. It counts as cell-based.
Data set [3] relates to Plasmodium berghei. Nature of the data set: Antimalarial activity against blood stage Plasmodium berghei infected in mouse administered qd through oral gavage for 4 days. The conditions noted are these: 96 h.
The test system of the next data set is Plasmodium yoelii. Nature of the data set: Antimalarial activity against blood stage Plasmodium yoelii infected in mouse administered qd through oral gavage for 4 days. It counts as functional. The conditions noted are these: 96 h.
For data set [4], the system named is Plasmodium falciparum. Nature of the data set: Antimalarial activity against Plasmodium falciparum 3D7. It is filed as functional, organism-based.
Data set [5] concerns Plasmodium falciparum. Description: Antimalarial activity against atovaquone-resistant Plasmodium falciparum TM90C2B. It is filed as functional, organism-based.
Data set [6] in a line: Therapeutic index, ratio of IC50 for mouse/rat NG108 cells to IC50 chloroquine-resistant Plasmodium falciparum W2. It is filed as toxicity. The note with it: read-out: Ratio IC50.
In data set [7] the test system is Plasmodium falciparum. Nature of the data set: Antimalarial activity against chloroquine-resistant Plasmodium falciparum W2 by [3H]-hypoxanthine incorporation assay. It is filed as functional, organism-based.
In data set [8] the test system is Plasmodium berghei. Description: Antimalarial activity against Plasmodium berghei infected in po dosed mouse erythrocyte administered qd for 8 days by Giemsa staining based microscopic analysis. It is filed as functional. The note with it: 192 h.
The nature of data set [9]: Therapeutic index, ratio of IC50 for mouse J774 cells to IC50 chloroquine-resistant Plasmodium falciparum W2. It is filed as toxicity. The note with it: read-out: Ratio IC50.
Data set [10] in a line: Oral bioavailability in rat at 3 mg/kg. The note with it: in vivo. It is filed as ADME, organism-based.
For data set [11], the system named is Plasmodium falciparum. Description: Antimalarial activity against Plasmodium falciparum FCR 3TC after 48 hrs. It counts as functional, organism-based.
The nature of data set [12]: Half life in human. It is filed as ADME.
Data set [13] has as its system Plasmodium falciparum. Nature of the data set: Antimalarial activity against Plasmodium falciparum 3D7 after 48 hrs. It is filed as functional, organism-based. The note with it: 3D7, 48 h.
For data set [14], the system named is Plasmodium falciparum. Nature of the data set: Antimalarial activity against Plasmodium falciparum 3D7 after 96 hrs. It counts as functional, organism-based. The note with it: 3D7, 96 h.
For data set [15], the system named is Plasmodium falciparum. Nature of the data set: Antimalarial activity against Plasmodium falciparum W2 after 48 hrs. It is filed as functional, organism-based. The note with it: W2, 48 h.
For data set [16], the system named is Plasmodium falciparum. Description: Antimalarial activity against Plasmodium falciparum Dd2 assessed as reduction in parasite viability by [3H]-hypoxanthine incorporation assay. It is filed as functional, organism-based.
The test system of data set [17] is Plasmodium vinckei. Nature of the data set: Antimalarial activity against Plasmodium vinckei infected in ip dosed mouse assessed as reduction in parasitemia administered tid by 4-day suppression test. The conditions noted are these: 96 h. It is filed as functional.
The test system of data set [18] is Plasmodium vinckei. Nature of the data set: Antimalarial activity against Plasmodium vinckei infected in po dosed mouse assessed as reduction in parasitemia administered tid by 4-day suppression test. It counts as functional. The note with it: 96 h.
Data set [19] in a line: Oral bioavailability in rat. It is filed as ADME, organism-based. The note with it: in vivo.
Data set [20] deals with Plasmodium berghei. Nature of the data set: Antimalarial activity against GFP-transfected Plasmodium berghei ANKA infected in mouse assessed as reduction in parasitemia at 30 mg/kg, po administered on day 1 post infection measured on day 3 post infection. It counts as functional. On the set-up: scale not given: the % may be the effect or the level left.

In turn, `Cc1c(-c2ccc(-c3ccc(OC(F)(F)F)cc3)nc2)[nH]c2ccccc2c1=O` had an IC50 in data set [1] of 15 nM. Besides, the IC50 in [2] came to 14 nM. In the data set with Plasmodium berghei [3], this compound showed an ED50 of 1.8 mg/kg and an ED90 of 4.7 mg/kg.
In the data set with Plasmodium yoelii, `COc1cc2[nH]c(C)c(-c3ccc(Oc4ccc(OC(F)(F)F)cc4)cc3)c(=O)c2cc1Cl` returned an ED50 of 0.1 mg/kg and an ED90 of 0.15 mg/kg. The IC50 in the data set with Plasmodium falciparum [4] turned out to be 5 nM. The compound further had an IC50 with Plasmodium falciparum [5] of 3 nM.
Take `O=C(C[C@H]1NCCC[C@@H]1O)Cn1cnc2ccccc2c1=O`: the selectivity ratio in data set [6] and in data set [9] was 3 throughout. In the data set on Plasmodium falciparum [7], this compound yielded an IC50 of 2.5 nM. This compound also displayed an ED50 with Plasmodium berghei [8] of 2.3 mg/kg.
The compound `c1cc([C@H]2CC[C@]3(CC2)OO[C@]2(O3)C3CC4CC(C3)CC2C4)ccc1OCCN1CCOCC1` [ARTEFENOMEL] gave a bioavailability in data set [10] of 76%.
In turn, `O=C1C(O)=C([C@H]2CC[C@H](c3ccc(Cl)cc3)CC2)C(=O)c2ccccc21` [ATOVAQUONE] came in with a 50% effective dose (ED50) with Plasmodium yoelii of 0.02 mg/kg. In the data set on Plasmodium yoelii, this compound had an ED90 of 0.04 mg/kg. The IC50 was 2 nM in data set [1], 0.4 nM with Plasmodium falciparum [4], greater than 10000 nM in [2] and greater than 10000 nM with Plasmodium falciparum [5].
In the data set with Plasmodium falciparum [11], `CC[C@H]1OC(=O)[C@H](C)[C@@H](O[C@H]2C[C@@](C)(OC)[C@@H](O)[C@H](C)O2)[C@H](C)[C@@H](O[C@@H]2O[C@H](C)C[C@H](N(C)C)[C@H]2O)[C@](C)(O)C[C@@H](C)CN(C)[C@H](C)[C@@H](O)[C@]1(C)O` [AZITHROMYCIN] displayed a concentration for half-maximal inhibition (IC50) of 6500 nM. Further, the half-life in data set [12] was 74 h.
`CCC[C@@H]1C[C@@H](C(=O)N[C@@H]([C@H]2O[C@H](SC)[C@H](O)[C@@H](O)[C@H]2O)[C@H](C)Cl)N(C)C1` [CLINDAMYCIN]: the IC50 with Plasmodium falciparum [13] is greater than 10000 nM; with Plasmodium falciparum [14], 450 nM; in the data set with Plasmodium falciparum [15], greater than 10000 nM.
In the data set with Plasmodium falciparum [11], `CC[C@H]1OC(=O)[C@H](C)[C@@H](O[C@H]2C[C@@](C)(OC)[C@@H](O)[C@H](C)O2)[C@H](C)[C@@H](O[C@@H]2O[C@H](C)C[C@H](N(C)C)[C@H]2O)[C@](C)(O)C[C@@H](C)C(=O)[C@H](C)[C@@H](O)[C@]1(C)O` [ERYTHROMYCIN] gave an IC50 of 68000 nM.
Consider `O=CN(O)CCCP(=O)(O)O` [FOSMIDOMYCIN], for which the IC50 in the data set on Plasmodium falciparum [16] was found to be 290 nM. Further, the ED90 stood at 5 mg/kg in the data set with Plasmodium vinckei [17] and 20 mg/kg in the data set on Plasmodium vinckei [18]. Moreover, the bioavailability in [19] turned out to be 30%.
Take `CC(=O)N(O)CCCP(=O)(O)O` [FR-900098]: the IC50 in the data set with Plasmodium falciparum [16] was 90 nM.
For `CC(C)(N)CNC(=O)C[C@H]1CC[C@]2(CC1)OO[C@]1(O2)C2CC3CC(C2)CC1C3` [OZ277], the Activity in the data set with Plasmodium berghei [20] came out at 99%. Moreover, the bioavailability in [10] came out at 13%.
